We go through ten compounds from US20260060908A1, “USE OF FATTY ACIDS FOR MICROBIOME BENEFIT AND COMPOSITIONS COMPRISING THE SAME” (Conopco, Inc., d/b/a UNILEVER, priority 2022, published 2026).

In one assay the test system is S. epidermidis. Nature of the assay: Growth of S. epidermidis in the presence of fatty acids (absorbance 620 nm growth curve). It counts as cell-based. To be noted: Staphylococcus epidermidis; oleic acid, linoleic acid at 0.01% and their combination; control = 100; read-out: % increase over control. As for the experimental part: Experiments were carried out on the growth of S. Epidermidis in the presence of various fatty acids using the following procedure.
(§1) The microorganism (S. epidermidis or S. hominis as the case may be) was streaked on TSA agar plate and incubated at 37° C. for 24 hr
(§2) The test samples (200 μl) were added to 96 well plate, followed by addition of above set cultures (20 μl).
(§3) The 96 well plate was placed in a Tecan reader and absorbance was read at 620 nm for a period of 24-30 h with a kinetic interval of 1 h
(§4) The values obtained is plotted as a growth curve with X-axis representing time in hour and Y-axis as absorbance read at 620 nm.
Consider `CCCCCCCC/C=C\CCCCCCCC(=O)O` [Example 11, Oleic acid], for which the activity at 0.01 % stood at 135%. Turning to `CCCCC/C=C\C/C=C\CCCCCCCC(=O)O` [Example 12, Linoleic acid], the activity at 0.01 % was 132%.

The same assay, now with this note: Staphylococcus epidermidis; unsaturated fatty acids at 0.001%; at the end of 24 to 30 hours; control = 100.0; read-out: % increase over control.
For `CCCCCCCC/C=C\CCCCCCCC(=O)O` [Example 7, Oleic acid], the activity at 0.001 % was found to be 132%. The same measure, in the same setting: under `CCCCC/C=C\C/C=C\CCCCCCCC(=O)O` [Example 8, Linoleic acid] stands 146%. Still for that read-out and setting: the result for `CCCCCC/C=C\CCCCCCCC(=O)O` [Example G, Palmitoleic acid, reference compound] reads 98.4%.

Another assay has as its system S. Hominis. The experiment in a line: Growth of S. hominis in the presence of fatty acids (absorbance 620 nm growth curve). It counts as cell-based. As to conditions: saturated fatty acids, concentration per example, at the end of 24 to 30 hours, control = 100.0. As for the experimental part: • 5% of fatty acid stock is made in DMSO-0.5 g in 10 ml of DMSO • 2.68% of fatty acid (Total volume 5 ml) is made with 2.68 ml of 5% fatty acid stock+[…] of DMSO+0.45 ml of Tween 80. • Test samples: 50 μl 2.68% stock in 4.95 ml 1/10th diluted TSB (test samples)
as §1
Plate cultures of the microorganism was used to set up 0.3 OD620nm (corresponding to log 10^8 CFU/ml) in 1× PBS (pH7.4)
as §2, §3, §4
Experiments similar to those in Table-1 were carried out except that the microorganism used was S. Hominis.
In the case of `CCCCCCCCCCCC(=O)O` [D, Lauric acid], the “% increase over control” value is listed as 63.0%. On the same count and under the same terms, under `CCCCCCCCCCCCCC(=O)O` [E, myristic acid] stands 52.0%; under `CCCCCCCCCCCCCCCCCCCC(=O)O` [Example 5, arachidic acid], 123.0%; under `CCCCCCCCCCCCCCCCCCCCCCCC(=O)O` [Example 6, lignoceric acid], 153.0%. Same read-out and setting: the result for `CCCCCCCCCCCCCCCC(=O)O` [Example F, palmitic acid] reads 104.0%.
